{"source": "patent US20020155422A1", "about": "“Methods for analyzing dynamic changes in cellular informatics and uses therefor” (priority 2000, published 2002)", "test_system": "HL-60 cells", "test": "Gene expression profiling (Resgen microarray filters) of HL-60 cells stimulated to differentiate into neutrophils, time course", "type": "cell-based, human", "details": "for Normalized expression level of gene W95428 / Normalized expression level of gene W96205 / Normalized expression level of gene W96450 / Normalized expression level of gene W96463: HL-60 cells, retinoic acid induced switch, normalized to T = 0 level", "from_the_text": "Given the value of understanding the genetic basis of the switch between different hematopoietic stem cell lineages, a well-characterized human pluripotent precursor cell line—the HL 60 promyeloid leukemia cell line—provides a useful model system. HL 60 precursors cells can be induced to switch to granulocytes, monocytes, or macrophages based on alterations in experimental conditions. […] Established molecular methods (e.g., immunocytochemistry, FACS cell sorting, SDS-PAGE, Western blots, Northern blots, or other biochemical or molecular biological techniques) can be used to identify cells that have switched, between different phenotypes. These methods can be used to identify experimental conditions necessary to optimally acquire the baseline data for analysis according to methods of the invention, including information on the dose-response for the transition between different cell states and the time required for a stimulated cell to undergo the transition and reach a new steady state. Additional insight into the molecules involved in cell regulation may be gained by carrying out analysis of cells under various experimental conditions that induce forward and reverse transitions between the same two states by adding or removing a common stimulus as well as by analysis of convergent transition processes that involve switching to a common cell state using different stimuli and divergent transition process that involve switching from one state to two different attractor states using different perturbations. […] The latter would lead to a perturbation of the attractor state to various degrees with subsequent relaxation back to the same attractor along distinct trajectories.\nCell state transitions that may be studied and characterized in the HL60 model system include: A) induction of a transition from HL60 precursor to a granulocyteby treatment with DMSO; B) induction of a reverse transition from granulocyte to HL60 by removing DMSO; C) induction of a transition from HL60 precursor to granulocyte using all-trans-retinoid acid; D) induction of a reverse transition from granulocytes to HL60 precursors by removing all-trans-retinoid acid; E) induction of a transition from HL60 precursors to a monocyte(s) by addition of NaButyrate; and F) induction of a transition from HL60 precursors to a macrophage(s) by addition of TPA. This approach was used to analyze two convergent processes of HL-60 cell transition from precursor to neutrophil states after stimulation with DMSO and retinoic acid (transitions A and C, respectively). In this experiment, only a relatively low number of genes (<300) were analyzed over 7 time points.\nHL-60 cells (1.5×10^6 cells/ml) were stimulated in parallel cultures to differentiate into neutrophils along two different but convergent paths by treatment with DMSO (S1 path) or retinoic acid (S2 path). At each time point, RNA was harvested from both cultures using RNeasy extraction kit (Qiagen) and subjected to gene expression profiling using Resgen microarray filters from Research Genetics/Invitrogen (the gene filter contains 5000 human cDNAs that were pre-spotted on a 5×7 cm nylon membrane and then hybridized with radioactively labeled cDNA made from total cellular RNA). […] Expression levels for each gene were normalized to the 0 time point level for that gene (untreated reference). Genes with expression levels below a 4 fold change relative to the 0 reference were excluded from the analysis. In this analysis, an inter-trajectory distance representation was used to compare different trajectories with the cell state space and to identify common paths in cell state transition processes. For each time point, a state vector of length 281 genes was defined for each of the two processes S1(t) and S2(t). […]", "data": [{"smiles": "CC1=C(/C=C/C(C)=C/C=C/C(C)=C/C(=O)O)C(C)(C)CCC1", "note": "[retinoic acid]", "values": [{"measurement": "Normalized expression level of gene W95428", "setting": "2 hours", "result": 1.049}, {"measurement": "Normalized expression level of gene W96205", "setting": "2 hours", "result": 0.9014}, {"measurement": "Normalized expression level of gene W96450", "setting": "2 hours", "result": 0.8141}, {"measurement": "Normalized expression level of gene W96463", "setting": "2 hours", "result": 0.9136}, {"measurement": "Normalized expression level of gene W95428", "setting": "Day 2", "result": 1.003}, {"measurement": "Normalized expression level of gene W96205", "setting": "Day 2", "result": 0.931}, {"measurement": "Normalized expression level of gene W96450", "setting": "Day 2", "result": 0.8573}, {"measurement": "Normalized expression level of gene W96463", "setting": "Day 2", "result": 0.9058}, {"measurement": "Normalized expression level of gene W95428", "setting": "Day 3", "result": 0.9532}, {"measurement": "Normalized expression level of gene W96205", "setting": "Day 3", "result": 0.9937}, {"measurement": "Normalized expression level of gene W96450", "setting": "Day 3", "result": 0.6712}, {"measurement": "Normalized expression level of gene W96463", "setting": "Day 3", "result": 0.8109}, {"measurement": "Normalized expression level of gene W95428", "setting": "Day 4", "result": 0.9982}, {"measurement": "Normalized expression level of gene W96205", "setting": "Day 4", "result": 0.9089}, {"measurement": "Normalized expression level of gene W96450", "setting": "Day 4", "result": 0.8387}, {"measurement": "Normalized expression level of gene W96463", "setting": "Day 4", "result": 0.8458}, {"measurement": "Normalized expression level of gene W95428", "setting": "Day 5", "result": 0.9605}, {"measurement": "Normalized expression level of gene W96205", "setting": "Day 5", "result": 0.9604}, {"measurement": "Normalized expression level of gene W96450", "setting": "Day 5", "result": 1.17}, {"measurement": "Normalized expression level of gene W96463", "setting": "Day 5", "result": 0.841}, {"measurement": "Normalized expression level of gene W95428", "setting": "Day 7", "result": 0.954}, {"measurement": "Normalized expression level of gene W96205", "setting": "Day 7", "result": 0.9732}, {"measurement": "Normalized expression level of gene W96450", "setting": "Day 7", "result": 1.087}, {"measurement": "Normalized expression level of gene W96463", "setting": "Day 7", "result": 0.8014}]}, {"smiles": "C[S+](C)[O-]", "note": "[DMSO]", "values": [{"measurement": "inter-trajectory distance DT(t) (squared Euclidean distance between state vectors S1(t), S2(t))", "setting": "HL-60 cells 1.5×10^6 cells/ml, DMSO (S1 path) versus retinoic acid (S2 path), 281 genes, 7 time points, FIG. 7", "result": "converge on the same differentiation state"}]}]}
